Legend:
[1] = tested on: CD19CAR^+EGFRt^+IMPDH2dm^+ Line E cells; experiment: MPA resistance culture, IMPDH2dm-expressing Line E cells; assay type: cell-based, human; details: 1 uM MPA
control T cell line = experiment: MPA resistance culture, control T cells without IMPDH2dm; assay type: cell-based, human; details: 1 uM MPA, control T cell line lacking IMPDH2dm

COc1c(C)c2c(c(O)c1C/C=C(\C)CCC(=O)O)C(=O)OC2 [MPA, mycophenolic acid]
survival and/or proliferation in MPA [1]: not inhibited
survival and/or proliferation in MPA (control T cell line): inhibition

— US12421294B2, “Truncated epiderimal growth factor receptor (EGFRt) for transduced t cell selection” (City of Hope, priority 2009, dated 2025)
